# Measurements published in article PMC12267067, “Targeting GRPR for sex hormone-dependent cancer after loss of E-cadherin” (Nature, 2025).
# How the values were obtained:
# [1] = test system: Grpr expression in ESR1pos 1057 melanoma cells; assay: Pharmacological targeting of ERα: Grpr expression in 1057 cells; assay type: cell-based, mouse; details: 100 nM E2 or 1 µM ICI 182,780, 72 h, after oestrogen starvation for four days
# Description: (§1) RNA (3 µg) was reverse transcribed using M‐MLV reverse transcriptase (Invitrogen), according to the manufacturer’s protocol. The newly synthesized cDNA was used as a template for qPCR with the iTaq Universal SYBR Green Supermix. Technical triplicates were used for each sample and the quantified RNA normalized against TBP (human) or Hprt (mouse) as housekeeping transcripts (Supplementary Tables 9 and 10).
# (§2) For hormone depletion, FCS was stripped using the dextran-coated charcoal method. In brief, Norit activated charcoal (C6241-5G, Sigma-Aldrich, final concentration of 0.25%) and Dextran T-70 (31390, Sigma-Aldrich, final concentration of 0.0025%) in 0.25 M sucrose/1.5 mM MgCl2/10 mM HEPES (H4034, Sigma-Aldrich), pH 7.4, were incubated overnight at 4 °C. The volume equivalent to the volume of the FCS to strip was pipetted into a new 50 ml tube and centrifugated at 500g for 10 min to remove the supernatant. The FCS was incubated with the activated charcoal for 12 h at 4 °C. The treated FCS was then filtered through a 0.22-µM pore filter to ensure sterility and mixed with the appropriate phenol red-free medium and PS. Cells were collected using phenol red-free trypsin and starved for oestrogen using phenol red-free/10% stripped FCS for four days. […]
# GRPR mRNA in MCF7 cells = assay: Pharmacological targeting of ERα: GRPR mRNA in MCF7 cells; assay type: cell-based, human; details: 17β-estradiol 100 nM or ICI 182,780 1 µM
# Description: as §1, §2
# [2] = target: T1, ERα in 1057 mouse melanoma cells (Mus musculus, UniProt P19785); assay: Western blot of ERα after ICI; assay type: cell-based; details: 1057 cells, ICI 1 μM, 24 h
# T1 construct: Effect of ICI treatment on ERα protein levels in murine 1057 melanoma cells; endogenous in cells; host or cells: 1057 mouse melanoma cells (female, ΔEcad, Esr1-positive)
# T1 sequence (P19785 1-599): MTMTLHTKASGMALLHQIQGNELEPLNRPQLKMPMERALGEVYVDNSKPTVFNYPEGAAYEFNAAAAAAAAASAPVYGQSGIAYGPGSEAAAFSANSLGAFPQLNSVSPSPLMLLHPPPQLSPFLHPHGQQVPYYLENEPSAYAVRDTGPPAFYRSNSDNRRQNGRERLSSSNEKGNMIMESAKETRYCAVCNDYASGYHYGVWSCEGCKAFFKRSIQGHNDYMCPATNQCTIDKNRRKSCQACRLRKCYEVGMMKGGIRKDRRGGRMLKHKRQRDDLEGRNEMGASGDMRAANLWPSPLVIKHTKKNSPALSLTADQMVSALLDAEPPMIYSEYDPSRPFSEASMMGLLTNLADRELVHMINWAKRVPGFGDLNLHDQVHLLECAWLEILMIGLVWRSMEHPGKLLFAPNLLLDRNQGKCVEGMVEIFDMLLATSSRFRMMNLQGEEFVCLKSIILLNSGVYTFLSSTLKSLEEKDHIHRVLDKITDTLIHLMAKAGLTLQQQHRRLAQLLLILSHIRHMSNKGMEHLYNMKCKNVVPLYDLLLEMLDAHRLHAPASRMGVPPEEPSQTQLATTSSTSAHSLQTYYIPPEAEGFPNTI
# Description: (§3) Whole-cell lysates were prepared and analysed as described previously. The primary antibodies used were: E-cadherin (610182, BD Transduction Laboratories, dilution 1/1,000); ERα (MA1-27107, Invitrogen, dilution 1/500); YAP (14074, Cell Signaling, dilution 1/1,000); β-actin (A5441, Sigma, dilution 1/5,000); and vinculin (4650, Cell Signaling, dilution 1/5,000). All raw data are provided in Supplementary Fig. 1.
# GRPR, Gαq/11 activation = assay: IP1 detection (HTRF IP-one Gq kit); assay type: cell-based, mouse; details: 4,000 cells, 30 min, 37 °C, StimB buffer, 10 nM GRP, 1 µM RC-3095, 1 µM ICI-182,780 (pre-treatment)
# Description: IP1 levels were quantified using the HTRF IP-one Gq detection kit (62IPAPEB, Revvity) following the manufacturer’s protocol. We treated 4,000 cells for 30 min at 37 °C in StimB buffer with 10 nM GRP, 1 µM RC-3095, 1 µM ICI-182,780 or DMSO. FRET signals (620 nm and 665 nm, excitation at 385 nm) were measured using a Clariostar plate reader (BMG Labtech).
# [3] = test system: mouse melanoma cell lines (1057, 1064, 1181, 1039, 1456, 1014); assay: Matrigel invasion assay, mouse melanoma cells; assay type: cell-based; details: 24 h
# Description: Matrigel invasion assays were done in transwell plates with 8.0-µm pores (353097, Falcon) coated with 100 µl of 200 µg ml^−1 Matrigel. Depending on the experiments, cells were seeded directly or 24 h after transfection in low-serum medium (0.5% FCS for murine cells and 1% for human cell lines) with 10 nM GRP, 1 µM RC-3095, and/or 1 µM IC 182,780, or in 10% FCS. Then, 24 hours after stimulation, inserts were washed with PBS and non-invading cells were removed. Cells in the inserts were fixed in methanol at −20 °C overnight. The inserts were rinsed and the membrane carefully removed using a sharp scalpel. The membrane was mounted in prolong glass DAPI (1.5 µg ml^−1). Assays were performed in triplicate and automatic counting of invading cells was done using an Image/Fiji macro (10.5281/zenodo.14509394). Sequences of siRNAs are given in Supplementary Table 11.
# [4] = test system: 1057 ΔEcad melanoma cells; assay: ICI/Fulvestrant experiments: lung metastases after tail-vein injection of 1057 cells; assay type: in vivo, C57BL/6J mice
# Description: Mouse and human melanoma cells (5 × 10^5) were suspended in 200 µl PBS and injected into the tail veins of eight-week-old C57BL/6J and NSG mice, respectively. Mice were monitored daily and weighed twice weekly. Euthanasia and autopsy were performed following 20% weight loss or reaching ethical end points.
# Right lungs were imaged using a Leica MZFLIII binocular microscope with a Scion camera. Metastases were quantified in ImageJ, with macro-metastases (bigger than 0.1 mm) and micro-metastases (0.1 mm or smaller).
# In vitro pre-treatment: 1057 melanoma cells (5 × 10^5) were pretreated for 3 days with 1 µM ICI before tail-vein injection. In vivo treatment: 1057 melanoma cells (5 × 10^5) were injected into C57BL/6J mice, followed by […] Fulvestrant (Zentiva) 3 h after injection, then weekly for 3 weeks. Mice were euthanized on day 25 after injection, and lung metastases were assessed by PCR-based Cre transgene detection. DNA was extracted from lung tissue and metastasis burden was analysed statistically.
# [5] = test system: ΔEcad mouse 1057 melanoma cells; assay: RT-qPCR of β-catenin targets, Esr1 and Grpr after β-catenin inhibition; assay type: cell-based; details: ΔEcad mouse 1057 cells, iCRT3 10 μM, 48 h (with siRNA targeting Ctnnb1)
# Description: as §1
# [6] = test system: Daju human melanoma cells; assay: RT-qPCR and western blot of ESR1/ERα after iCRT3; assay type: cell-based; details: iCRT3 80 μM, 48 h
# Description: as §1, §3
# [7] = Metabolic stability assay (liver microsomes); assay type: in vitro ADME, mouse
# Description: Each compound was diluted to a final concentration of 1 µM in 100 mM phosphate buffer (pH 7.4) containing 0.5 mg ml^−1 mouse liver microsomes, 1 mM NADPH regenerating system and 1 mM MgCl2 and incubated at 37 °C for 1 h. At various time points (0, 2, 10, 20, 40 and 60 min), one volume of ice-cold acetonitrile was added and the supernatants were analysed by LC–MS/MS. To obtain a stability curve, the percentage of remaining test compound at each time point was determined by monitoring the peak area. The half-life was estimated from the slope of the initial linear range of the logarithmic curve of the remaining compound (percentage) against time, assuming first-order kinetics.
# Analyses were done on a Shimadzu 8030 LC–MS instrument. Chromatographic separations were done at 40 °C using a 2.6-µm C18 Kinetex column (50 × 2.1 mm; Phenomenex). The mobile phase flow rate was set to 0.5 ml min^−1 and the following program applied for the elution: 0 min, 5% B; 0–1.2 min, 5–95% B; 1.2–1.4 min, 95% B; 1.4–1.42 min, 95-5% B; and 1.42–2.8 min, 5% B (solvent A, 0.05% formic acid in water; solvent B, acetonitrile). The injection volume was 1 µl. The mass spectrometer was interfaced with the liquid-chromatography system using an electrospray ion source. The nitrogen nebulizing gas flow was set to 1.5 l min^−1 and the drying gas flow to 15 ml min^−1. […]
smiles,measurement,setting,value
"C[C@]12CC[C@@H]3c4ccc(O)cc4CC[C@H]3[C@@H]1CC[C@@H]2O [E2, 17β-oestradiol]",Grpr expression,[1],increased Grpr expression
same,GRPR mRNA expression,GRPR mRNA in MCF7 cells,increased GRPR
"C[C@]12CC[C@@H]3c4ccc(O)cc4C[C@@H](CCCCCCCCC[S+]([O-])CCCC(F)(F)C(F)(F)F)[C@H]3[C@@H]1CC[C@@H]2O (stereo partly shown) [ICI 182,780]",ERα protein level,[2],reduced
same,Grpr expression,[1],reduced it
same,"IP1 production, GRPR-positive cells","GRPR, Gαq/11 activation",reduced IP1 production
same,GRPR mRNA expression,GRPR mRNA in MCF7 cells,significantly decreased
same,"invasion potential of 1057 cells, ICI alone",[3]; 1 µM ICI without GRP,no effect
same,"invasion (number of invading cells), GRPR-positive mouse lines","[3]; 1057 (also 1064, GRPR-transduced 1014 and 1181 for RC-3095), 10 nM GRP, 1 µM RC-3095 and/or 1 µM ICI, Matrigel 200 µg ml−1, 0.5% FCS",significantly reduced
same,"invasion (number of invading cells), Grpr-negative mouse lines","[3]; 1181 male Ecad, 1039 female Ecad, 1456 male ΔEcad, 10 nM GRP and/or 1 µM ICI",no effect
same,Visible metastases (%): mice with visible lung metastases / mice injected,[4],1/6
same,mice with no metastases,"[4]; Fulvestrant 50 mg per kg 3 h after injection of 1057 cells and weekly for three weeks, day 25",5 of 6
same,"Metastatic burden in lungs, qPCR for the 1057-specific Cre transgene","[4]; Fulvestrant-treated mice (50 mg per kg), day 25",reduced
same,"Metastatic burden in lungs, qPCR for the 1057-specific Cre transgene","[4]; ICI-pretreated 1057 cells, day 25",reduced
same,mice with no visible metastases,"[4]; mice injected with ICI-pretreated 1057 cells (3 days, 1 µM), day 25, control 1 of 11",9 of 13
CCc1ccc(-c2nc(CSCC(=O)NCCc3ccccc3)c(C)o2)cc1 [iCRT3],"expression of Nkd1, Esr1 and Grpr (RT-qPCR)",[5],"decreased the expression of Nkd1, Esr1 and Grpr"
same,ERα levels at RNA and protein level,[6],reduction
same,GRP-induced invasion after β-catenin inhibition,"[3]; 1057 cells, iCRT3 and/or GRP",reduced GRP-induced invasion
CC(C)C[C@@H](CN[C@@H](CC(C)C)C(N)=O)NC(=O)[C@H](Cc1c[nH]cn1)NC(=O)CNC(=O)[C@@H](NC(=O)[C@H](C)NC(=O)[C@H](Cc1c[nH]c2ccccc12)NC(=O)[C@H](CCC(N)=O)NC(=O)[C@H]1Cc2c([nH]c3ccccc23)CN1)C(C)C [RC-3095],"metabolic stability, comparison of the two GRPR antagonists","[7]; RC-3095 versus PD-176252, murine plasma and liver microsomes",higher metabolic stability
COc1ccc(C2(CNC(=O)[C@](C)(Cc3c[nH]c4ccccc34)NC(=O)Nc3ccc([N+](=O)[O-])cc3)CCCCC2)nc1 [PD-176252],Metabolic stability: t1/2,"[7]; mouse, pH 7.4",1.5 ± 0.1 min
